# Laboratory results published in US7767659B2, “Synthesis of naturally occurring ecteinascidins and related compounds” (Pharma Mar, S.A., priority 2002, dated 2010).
# Like-named read-outs stand apart in the source and are kept apart here.
# How the values were obtained:
# [1] = tested on: HeLa-APL; assay: Inhibition of cells growth by colorimetric assay (SRB)
# Procedure, shortened: (§1)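 Colorimetric SRB read (490 nm) on triplicate wells after 48 h at 37 °C, 5% CO2. Dose range 10 to 10^−8 μg/ml; 5×10^3 cells/well pre-attached 18 h.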
# [2] = tested on: DU-145; assay: as above; conditions: for GI50: read-out: GI50 DU145; for CC50: read-out: LC50 DU145
# Procedure, shortened: as §1
# [3] = tested on: IGROV-ET; assay: as above
# Procedure, shortened: as §1
# [4] = tested on: SK-BR-3; assay: as above
# Procedure, shortened: as §1
# [5] = tested on: IGROV-1; assay: as above
# Procedure, shortened: as §1
# [6] = tested on: HeLa; assay: as above
# Procedure, shortened: as §1
# [7] = tested on: LNCaP; assay: as above; conditions: for GI50: read-out: GI50 LNCAP; for CC50: read-out: LC50 LNCAP
# Procedure, shortened: as §1
# [8] = tested on: K-562; assay: as above
# Procedure, shortened: as §1
# [9] = tested on: PANC-1; assay: as above
# Procedure, shortened: as §1
# [10] = tested on: SK-MEL-28; assay: as above; conditions: for GI50: read-out: GI50 MEL-28; for CC50: read-out: LC50 MEL-28
# Procedure, shortened: as §1
# [11] = tested on: LoVo-Dox; assay: as above
# Procedure, shortened: as §1
# [12] = tested on: LoVo; assay: cells
# Procedure, shortened: as §1
# [13] = tested on: A-549; assay: cells; conditions: for GI50: read-out: GI50 A549; for CC50: read-out: LC50 A549
# Procedure, shortened: as §1
# [14] = tested on: HT-29; assay: cells; conditions: for GI50: read-out: GI50 HT29; for CC50: read-out: LC50 HT29
# Procedure, shortened: as §1
smiles,measurement,setting,value
C=CCN1[C@@H]2c3c(cc(C)c(OC)c3O)C[C@H]1[C@H](C#N)N1C2[C@@H]2SCC(NC(=O)C(F)(F)F)C(=O)OC[C@H]1c1c3c(c(C)c(OC(C)=O)c12)OCO3 (stereo partly drawn) [compound 25],GI50,"[1]; Homo sapiens, 48 h, read-out: GI50 HELA-APL",939 nM
same,CC50,"[1]; Homo sapiens, 48 h, read-out: LC50 HELA-APL",7690 nM
same,IC (TGI),"[1]; Homo sapiens, 48 h, read-out: TGI HELA-APL",2780 nM
same,GI50,"[2]; Homo sapiens, DU-145, 48 h",861 nM
same,CC50,"[2]; Homo sapiens, DU-145, 48 h",6570 nM
same,IC (TGI),"[2]; Homo sapiens, DU-145, 48 h, read-out: TGI DU145",2200 nM
same,GI50,"[3]; Homo sapiens, 48 h, read-out: GI50 IGROV-ET",1610 nM
same,CC50,"[3]; Homo sapiens, 48 h, read-out: LC50 IGROV-ET",12100 nM
same,IC (TGI),"[3]; Homo sapiens, 48 h, read-out: TGI IGROV-ET",4410 nM
same,GI50,"[4]; Homo sapiens, SK-BR-3, 48 h, read-out: GI50 SK-BR3",555 nM
same,CC50,"[4]; Homo sapiens, SK-BR-3, 48 h, read-out: LC50 SK-BR3",8640 nM
same,IC (TGI),"[4]; Homo sapiens, SK-BR-3, 48 h, read-out: TGI SK-BR3",1060 nM
same,GI50,"[5]; Homo sapiens, IGROV-1, 48 h, read-out: GI50 IGROV",660 nM
same,CC50,"[5]; Homo sapiens, IGROV-1, 48 h, read-out: LC50 IGROV",8010 nM
same,IC (TGI),"[5]; Homo sapiens, IGROV-1, 48 h, read-out: TGI IGROV",1430 nM
same,GI50,"[6]; Homo sapiens, HeLa, 48 h, read-out: GI50 HELA",1500 nM
same,CC50,"[6]; Homo sapiens, HeLa, 48 h, read-out: LC50 HELA",8110 nM
same,IC (TGI),"[6]; Homo sapiens, HeLa, 48 h, read-out: TGI HELA",3480 nM
same,GI50,"[7]; Homo sapiens, LNCaP, 48 h",323 nM
same,CC50,"[7]; Homo sapiens, LNCaP, 48 h",2550 nM
same,IC (TGI),"[7]; Homo sapiens, LNCaP, 48 h, read-out: TGI LNCAP",757 nM
same,GI50,"[8]; Homo sapiens, K562, 48 h, read-out: GI50 K562",316 nM
same,CC50,"[8]; Homo sapiens, K562, 48 h, read-out: LC50 K562",3780 nM
same,IC (TGI),"[8]; Homo sapiens, K562, 48 h, read-out: TGI K562",775 nM
same,GI50,"[9]; Homo sapiens, PANC-1, 48 h, read-out: GI50 PANC-1",1370 nM
same,CC50,"[9]; Homo sapiens, PANC-1, 48 h, read-out: LC50 PANC-1",11000 nM
same,IC (TGI),"[9]; Homo sapiens, PANC-1, 48 h, read-out: TGI PANC-1",3900 nM
same,GI50,"[10]; Homo sapiens, SK-MEL-28, 48 h",632 nM
same,CC50,"[10]; Homo sapiens, SK-MEL-28, 48 h",5650 nM
same,IC (TGI),"[10]; Homo sapiens, SK-MEL-28, 48 h, read-out: TGI MEL-28",1770 nM
same,GI50,"[11]; Homo sapiens, 48 h, read-out: GI50 LOVO-DOX",904 nM
same,CC50,"[11]; Homo sapiens, 48 h, read-out: LC50 LOVO-DOX",13900 nM
same,IC (TGI),"[11]; Homo sapiens, 48 h, read-out: TGI LOVO-DOX",3770 nM
same,GI50,"[12]; Homo sapiens, LoVo, 48 h, read-out: GI50 LOVO",938 nM
same,CC50,"[12]; Homo sapiens, LoVo, 48 h, read-out: LC50 LOVO",9270 nM
same,IC (TGI),"[12]; Homo sapiens, LoVo, 48 h, read-out: TGI LOVO",3160 nM
same,GI50,"[13]; Homo sapiens, A549, 48 h",927 nM
same,CC50,"[13]; Homo sapiens, A549, 48 h",11500 nM
same,IC (TGI),"[13]; Homo sapiens, A549, 48 h, read-out: TGI A549",3450 nM
same,GI50,"[14]; Homo sapiens, HT-29, 48 h",1640 nM
same,CC50,"[14]; Homo sapiens, HT-29, 48 h",13900 nM
same,IC (TGI),"[14]; Homo sapiens, HT-29, 48 h, read-out: TGI HT29",8570 nM
COc1c(C)cc2c(c1O)C1C3C4SCC(NC(C)=O)C(=O)OCC(c5c6c(c(C)c(OC(C)=O)c54)OCO6)N3C(C#N)C(C2)N1C(C)=O (stereo not drawn) [compound 35],HELA-APL TGI,"[1]; SRB assay, 48 hours exposure, HELA-APL, total growth inhibition",1.09E−06 Molar
same,GI50,"[1]; read-out: HELA-APL GI50, SRB assay, 48 hours exposure, HELA-APL",458 nM
same,CC50,"[1]; read-out: HELA-APL LC50, SRB assay, 48 hours exposure, HELA-APL, cell killing",5920 nM
same,TGI DU145,"[2]; DU145, SRB, 48 hours exposure",1.20E−06 Molar
same,GI50,"[2]; DU145, SRB, 48 hours exposure",570 nM
same,CC50,"[2]; DU145, SRB, 48 hours exposure",10300 nM
same,IGROV-ET TGI,"[3]; SRB assay, 48 hours exposure, IGROV-ET, total growth inhibition",6.35E−06 Molar
same,GI50,"[3]; read-out: IGROV-ET GI50, SRB assay, 48 hours exposure, IGROV-ET",2300 nM
same,CC50,"[3]; read-out: IGROV-ET LC50, SRB assay, 48 hours exposure, IGROV-ET, cell killing",14400 nM
same,SK-BR3 TGI,"[4]; SRB assay, 48 hours exposure, SK-BR3, total growth inhibition",1.10E−06 Molar
same,GI50,"[4]; read-out: SK-BR3 GI50, SRB assay, 48 hours exposure, SK-BR3",396 nM
same,CC50,"[4]; read-out: SK-BR3 LC50, SRB assay, 48 hours exposure, SK-BR3, cell killing",9350 nM
same,IGROV TGI,"[5]; SRB assay, 48 hours exposure, IGROV, total growth inhibition",1.69E−06 Molar
same,GI50,"[5]; read-out: IGROV GI50, SRB assay, 48 hours exposure, IGROV",420 nM
same,CC50,"[5]; read-out: IGROV LC50, SRB assay, 48 hours exposure, IGROV, cell killing",8630 nM
same,HELA TGI,"[6]; SRB assay, 48 hours exposure, HELA, total growth inhibition",8.37E−07 Molar
same,GI50,"[6]; read-out: HELA GI50, SRB assay, 48 hours exposure, HELA",396 nM
same,CC50,"[6]; read-out: HELA LC50, SRB assay, 48 hours exposure, HELA, cell killing",3390 nM
same,TGI LNCAP,"[7]; LNCAP, SRB, 48 hours exposure",3.97E−07 Molar
same,GI50,"[7]; LNCAP, SRB, 48 hours exposure",189 nM
same,CC50,"[7]; LNCAP, SRB, 48 hours exposure",834 nM
same,K562 TGI,"[8]; SRB assay, 48 hours exposure, K562, total growth inhibition",1.13E−06 Molar
same,GI50,"[8]; read-out: K562 GI50, SRB assay, 48 hours exposure, K562",193 nM
same,CC50,"[8]; read-out: K562 LC50, SRB assay, 48 hours exposure, K562, cell killing",9770 nM
same,PANC-1 TGI,"[9]; SRB assay, 48 hours exposure, PANC-1, total growth inhibition",1.41E−06 Molar
same,GI50,"[9]; read-out: PANC-1 GI50, SRB assay, 48 hours exposure, PANC-1",471 nM
same,CC50,"[9]; read-out: PANC-1 LC50, SRB assay, 48 hours exposure, PANC-1, cell killing",14400 nM
same,TGI MEL-28,"[10]; MEL-28, SRB, 48 hours exposure",8.63E−07 Molar
same,GI50,"[10]; MEL-28, SRB, 48 hours exposure",390 nM
same,CC50,"[10]; MEL-28, SRB, 48 hours exposure",3190 nM
same,LOVO-DOX TGI,"[11]; SRB assay, 48 hours exposure, LOVO-DOX, total growth inhibition",1.44E−05 Molar
same,GI50,"[11]; read-out: LOVO-DOX GI50, SRB assay, 48 hours exposure, LOVO-DOX",5750 nM
same,CC50,"[11]; read-out: LOVO-DOX LC50, SRB assay, 48 hours exposure, LOVO-DOX, cell killing",14400 nM
same,LOVO TGI,"[12]; SRB assay, 48 hours exposure, LOVO, total growth inhibition",2.14E−06 Molar
same,GI50,"[12]; read-out: LOVO GI50, SRB assay, 48 hours exposure, LOVO",564 nM
same,CC50,"[12]; read-out: LOVO LC50, SRB assay, 48 hours exposure, LOVO, cell killing",14400 nM
same,TGI A549,"[13]; A549, SRB, 48 hours exposure",5.96E−06 Molar
same,GI50,"[13]; A549, SRB, 48 hours exposure",2930 nM
same,CC50,"[13]; A549, SRB, 48 hours exposure",12100 nM
same,TGI HT29,"[14]; HT29, SRB, 48 hours exposure",8.18E−06 Molar
same,GI50,"[14]; HT29, SRB, 48 hours exposure",602 nM
same,CC50,"[14]; HT29, SRB, 48 hours exposure",14400 nM
